Data from publication PMC11302729, “Repurposing Hsp90 inhibitors as antimicrobials targeting two-component systems identifies compounds leading to loss of bacterial membrane integrity” (Microbiology Spectrum, 2024).
Converted amounts (≈) assume the structure as drawn. “And” between values parts separate entries of the source, which are not always exact repeats. Equal entries are not always repeated. Where two headings read alike, the source gives them in different places.

Key:
Type in all cases: cell-based
[1] = system: Escherichia coli D21f2 with a truncated LPS barrier; experiment: MIC (microdilution) against E. coli D21f2; conditions: read-out: MIC E coli D21f2
From the text: (§1) We also tested the inhibitory activity of compounds in two different E. coli mutants: (i) E. coli JW5503 that lacks TolC efflux pumps and (ii) E. coli D21f2 that has a defective LPS inner core increasing permeability of the outer membrane. E. coli D21f2 has a slightly higher susceptibility to DPP compounds than E. coli ATCC25922.
(§2) Staphylococcus aureus str. Newman, Enterococcus faecalis vanA (strain E0155), Enterococcus faecium vanA (strain E1654), Escherichia coli ATCC 25922, Escherichia coli D21f2 with a truncated LPS barrier, Escherichia coli JW5503 (ΔtolC) ([49]), Pseudomonas aeruginosa ATCC 27853, and Pasteurella haemolytica ATCC 29701 were grown in Mueller-Hinton Broth (MHB) (Oxoid, Basingstoke, UK) and incubated at 37°C.
(§3) The minimal inhibitory concentration was determined using the microdilution method following the guidelines of the European Committee on Antimicrobial Susceptibility Testing ([50]). Briefly, a series of twofold dilutions in MHB of each compound were made in a 96-well plate, with final concentrations ranging from 50 to 0.39 µg/mL in 100 µL final volume per well. A hundred microliters of 1:100 dilution of an overnight culture of the correspondent bacteria in MHB was added to each well. Plates were incubated for 18 hours at 37°C. MIC was recorded as the lowest concentration where no growth was detected as measured by optical density at 600 nm (OD600) using Spectramax M5 (Molecular Devices LLC, San Jose, CA, USA). […] Wells containing bacteria with or without 1% DMSO and medium alone were included as controls in every plate.

[2] = system: Enterococcus faecium vanA (strain E1654); experiment: MIC (microdilution) against E. faecium; conditions: Enterococcus faecium, read-out: MIC E. faecium
Protocol: as §2, §3

[3] = system: Enterococcus faecalis vanA (strain E0155); experiment: MIC (microdilution) against E. faecalis; conditions: Enterococcus faecalis, read-out: MIC E. faecalis
Protocol: as §2, §3

HEK293 cells [4] = experiment: in vitro; conditions: for Selectivity Index: LC50/MIC (HEK293 / S. aureus)
Protocol: (§4) HEK293 cells and the human hepatocellular carcinoma cells (HepG2) were routinely cultured in 75-cm^2 culture flasks (Corning Incorporated) on high-glucose Dulbecco’s modified Eagle medium (DMEM) containing glutaMax and phenol red (Gibco) supplemented with 1% penicillin/streptomycin (Gibco) and 10% fetal bovine serum (FBS) (Gibco). Cells were maintained at 37°C and 5% CO2.
(§5) Cytotoxicity assays with HEK293 and HepG2 cells were performed in 96-well plates seeded with 5 × 10^4 cells/well and incubated for 24 hours to reach 80%–90% confluency. Exterior wells were filled with only medium to prevent evaporation. Culture medium was removed from the cells, and 100 µL of exposure medium [high-glucose DMEM without phenol red (Gibco)] was added to avoid a potential interaction between FBS components or antibiotics and tested compounds. A twofold dilution series of compounds in exposure medium (range 100–3.2 μg/mL) was made in a separate 96-well plate, and 100 µL of each of these dilutions was added to the assay plates for 24 hours at 37°C in the presence of 5% CO2. Control wells contained cells with DMEM, DMEM + 1% DMSO (vehicle control), or DMEM + 20% DMSO. Wells without cells were also included as negative control. After exposure, the medium was replaced with 100 µL 10% Alamar Blue (Invitrogen) in exposure medium. After 45 min incubation at 37°C and 5% CO2, fluorescence was measured on a Spectramax M5 plate reader at λex = 541 nm, λem = 590 nm. Cell viability compared with the vehicle control was calculated, and inhibition curves for each compound were fitted (non-linear curve fit, four variables, bottom constrained = 0) in Prism 9 (GraphPad Software, San Diego, USA).

in vitro = conditions: human
Protocol: as §4, §5

[5] = system: Escherichia coli JW5503 (ΔtolC); experiment: MIC (microdilution) against E. coli JW5503; conditions: Escherichia coli, read-out: MIC E. coli JW5503
From the text: as §1, §2, §3

[6] = system: Escherichia coli ATCC 25922; experiment: MIC (microdilution) against E. coli; conditions: Escherichia coli, ATCC25922; Table ST1; read-out: MIC E. coli
Protocol: as §2, §3

[7] = system: Pseudomonas aeruginosa ATCC 27853; experiment: MIC (microdilution) against P. aeruginosa; conditions: Pseudomonas aeruginosa, ATCC27853; Table ST1; read-out: MIC P. aeruginosa
Protocol: as §2, §3

[8] = system: Pasteurella haemolytica ATCC 29701; experiment: MIC (microdilution) against P. haemolytica; conditions: Mannheimia haemolytica
Protocol: as §2, §3

[9] = system: Staphylococcus aureus str. Newman; experiment: Minimal inhibitory concentration (microdilution) against S. aureus; conditions: for MIC S. aureus: Table ST3
Protocol: as §2, §3

sheep red blood cells = experiment: Haemolysis assay; conditions: for Haemolysis: if considered to cause haemolysis to red blood cells
Protocol: The hemolysis assay was adapted from the study by Evans et al. ([65]). Briefly, sheep RBC 10% washed pooled cells in PBS (Rockland Immunochemicals, Limerick, PA, USA) were diluted 1:5 to give a final concentration of 2% RBCs in PBS. […] A non-treated control, 1% DMSO (vehicle control), and complete cell lysis control (Triton-X 2%) were included in each assay. After exposure samples were centrifuged at 4°C at 1,000 g for 15 min and 100 µL of supernatant transferred to a clean well in a 96-well, clear, flat-bottom plate (Corning Incorporated). Released hemoglobin was measured by absorption at 540 nm using a Spectramax M5 plate reader. The experiments were performed in quadruplicate. The percentage of hemolysis was calculated as follows:
Hemolysis=A540nm,testcondition−A540nm,DMSOcontrol/A540nm,TritonXControl−A540nm,DMSOcontrol

S. aureus str. Newman = experiment: Membrane permeability using SYTOX-Green, flow cytometry; conditions: for % FITC stained bacteria 0.5 xMIC: 0.5× MIC; for % FITC stained bacteria 0.5 xMIC / % FITC stained bacteria 1 xMIC / % FITC stained bacteria 2 xMIC: 5 min exposure; for % FITC stained bacteria 1 xMIC: 1× MIC; for % FITC stained bacteria 2 xMIC: 2× MIC; for Membrane damage: if considered to cause membrane damage to S. aureus
Protocol: S. aureus str. Newman was grown to exponential phase (OD600 = 0.4) in MHB media. […] Nisin (Sigma-Aldrich) and novobiocin (Sigma-Aldrich) were used as positive and negative controls for membrane permeabilization, and stained and unstained untreated controls were also included in each assay. After exposure, samples were centrifuged at 4,000 r.p.m. for 5 min and resuspended in PBS. Bacteria were dyed by adding the fluorescent nuclear stain SYTOX Green (Molecular Probes, Invitrogen) to a final concentration of 0.5 µM and incubating for 5 min in the dark. Samples were centrifuged again and resuspended with PBS to remove unbound stain. Three hundred microliters of each sample was transferred to a clean well in a 96-well clear-bottom plate (Corning Incorporated). Fluorescence was measured in CytoFLEX flow cytometer (Beckman Coulter, Brea, CA, USA) using the green (FITC) channel with the excitation wavelength at 488 nm. Overlay histograms were created with CytExpert Software (Beckman Coulter, Brea, CA, USA).

HEK293 cells [10] = experiment: Cell imaging of HEK293 cells
Protocol: HEK293 cells were plated in 24-well plates on exposure medium for 24 hours (500,000 cells/well). Cells were exposed to a subset of compounds at a lethal concentration of 20% (LC20). After 24 hours exposure, cells were fixed with 2% glutaraldehyde for 15 min, washed with water, permeabilized with 0.5% Triton-X, washed twice with water, and stained with Toluidine blue 0.3%. For 100× amplification, cells were harvested by pipetting up and down in 250 µL of exposure medium. Cells from three wells treated with the same compound were pooled and centrifuged for 5 min at 1,500 r.p.m. The cell pellet was fixed in 0.1 M cacodylate buffer containing 2% glutaraldehyde (vol/vol) (pH 7.4). After 1 hour on ice, the pellet was washed with 0.1 M cacodylate buffer and fixed in 0.1 M cacodylate buffer containing 1% osmium tetroxide (wt/vol). After a further hour on ice, the cell pellet was embedded in hard Epon and 1-µm slides were cut and stained with 1% toluidine blue and 1% borax (wt/vol). Cell abnormalities were assessed by microscopy using a Leica DM6B light microscope (Leica Microsystems B.V., Amsterdam, the Netherlands) at 100× magnification.

[11] = Staphylococcus aureus, NEWMAN, Fig 2
[12] = Staphylococcus aureus, NEWMAN, Fig 2, value in parentheses
[13] = Table ST3, value in parentheses
[14] = ATCC29701, read-out: MIC P. haemolytica, Table ST1

Compound	MIC [1]	MIC [2]	MIC [3]	Selectivity Index (HEK293 cells [4])	CC50 at 24 h (in vitro)	MIC [5]	MIC [6]	MIC [7]	MIC [9, 11]	MIC [9, 12]	MIC S. aureus [9]	MIC [9, 13]	Haemolysis (sheep red blood cells)	% FITC stained bacteria 0.5 xMIC (S. aureus str. Newman)	% FITC stained bacteria 1 xMIC (S. aureus str. Newman)	% FITC stained bacteria 2 xMIC (S. aureus str. Newman)	Membrane damage (S. aureus str. Newman)	MIC [8, 14]	also measured
Oc1ccccc1-c1[nH]nc(C(F)(F)F)c1-c1ccc(Cl)cc1 [DPP-22]	25 µg/mL (≈ 73.8 µM)	12.5 µg/mL (≈ 36.9 µM)	12.5 µg/mL (≈ 36.9 µM)	1.85	2.89 µg/mL and 8.5 µM	1.56 µg/mL (≈ 4.61 µM)	> 250 µg/mL	> 250 µg/mL	1.56 µg/mL	4.59 µM	1.56 µg/mL (≈ 4.61 µM)	4.59 µM	YES	–	–	–	–	–	MIC ([8]; ATCC29701, Table ST1, read-out: MIC P. haemolytica): 12.5 µg/mL (≈ 36.9 µM)
Oc1ccc(-c2onc(C(F)(F)F)c2-c2ccc(Cl)cc2)c(O)c1 [DPP-11]	25 µg/mL (≈ 70.3 µM)	12.5 µg/mL (≈ 35.1 µM)	12.5 µg/mL (≈ 35.1 µM)	1.10	3.41 µg/mL and 9.61 µM	1.56 µg/mL (≈ 4.39 µM)	> 250 µg/mL	> 250 µg/mL	3.12 µg/mL	8.76 µM	3.12 µg/mL (≈ 8.77 µM)	8.76 µM	YES	24.77%	28.12%	57.97%	YES	62.5 µg/mL (≈ 176 µM)	–
CCOc1ccc(-c2[nH]nc(C(F)(F)F)c2-c2ccc(OC)c(OC)c2)c(O)c1 [DPP-20]	–	25 µg/mL (≈ 61.2 µM)	25 µg/mL (≈ 61.2 µM)	1.32	16.5 µg/mL and 40.3 µM	6.25 µg/mL (≈ 15.3 µM)	> 250 µg/mL	> 250 µg/mL	12.5 µg/mL	30.5 µM	12.5 µg/mL (≈ 30.6 µM)	30.49 µM	–	31.90%	40.99%	50.97%	YES	> 250 µg/mL	LC20 (HEK293 cells [4]; human, 24 h): 3 µg/mL (≈ 7.35 µM); cells in G2/M phase (HEK293 cells [10]; HEK293, LC20, 24 hours exposure, DMSO control 2.68% ± 1.31%): 26.25% ± 4.68%; Morphological changes of HEK293 cells (HEK293 cells [10]; LC20, 24 hours exposure, 40× amplification): no morphological changes; RBC hemolysis (sheep red blood cells): not hemolytic
